Test results as given in ChEMBL document CHEMBL1138146, “Analysis of anti-PDE3 activity of 2-morpholinochromone derivatives reveals multiple mechanisms of anti-platelet activity” (Bioorg Med Chem Lett, 2006).
The source made the active and inactive calls. No cut-off for these calls is given here.

Species on record: Homo sapiens
Experiment: Inhibition of PAR4AP induced platelet aggregation at 25 uM
Assay type: functional

SMILES | Activity
Cc1c(OCc2ccccc2)ccc2c(=O)cc(N3CCOCC3)oc12 | Active

What follows are compounds tested against cGMP-inhibited 3',5'-cyclic phosphodiesterase 3A (Homo sapiens) (UniProt Q14432) (assay: Inhibition of PDE3A at 50 uM).
Chain of cGMP-inhibited 3',5'-cyclic phosphodiesterase 3A (Homo sapiens) (Q14432 whole entry): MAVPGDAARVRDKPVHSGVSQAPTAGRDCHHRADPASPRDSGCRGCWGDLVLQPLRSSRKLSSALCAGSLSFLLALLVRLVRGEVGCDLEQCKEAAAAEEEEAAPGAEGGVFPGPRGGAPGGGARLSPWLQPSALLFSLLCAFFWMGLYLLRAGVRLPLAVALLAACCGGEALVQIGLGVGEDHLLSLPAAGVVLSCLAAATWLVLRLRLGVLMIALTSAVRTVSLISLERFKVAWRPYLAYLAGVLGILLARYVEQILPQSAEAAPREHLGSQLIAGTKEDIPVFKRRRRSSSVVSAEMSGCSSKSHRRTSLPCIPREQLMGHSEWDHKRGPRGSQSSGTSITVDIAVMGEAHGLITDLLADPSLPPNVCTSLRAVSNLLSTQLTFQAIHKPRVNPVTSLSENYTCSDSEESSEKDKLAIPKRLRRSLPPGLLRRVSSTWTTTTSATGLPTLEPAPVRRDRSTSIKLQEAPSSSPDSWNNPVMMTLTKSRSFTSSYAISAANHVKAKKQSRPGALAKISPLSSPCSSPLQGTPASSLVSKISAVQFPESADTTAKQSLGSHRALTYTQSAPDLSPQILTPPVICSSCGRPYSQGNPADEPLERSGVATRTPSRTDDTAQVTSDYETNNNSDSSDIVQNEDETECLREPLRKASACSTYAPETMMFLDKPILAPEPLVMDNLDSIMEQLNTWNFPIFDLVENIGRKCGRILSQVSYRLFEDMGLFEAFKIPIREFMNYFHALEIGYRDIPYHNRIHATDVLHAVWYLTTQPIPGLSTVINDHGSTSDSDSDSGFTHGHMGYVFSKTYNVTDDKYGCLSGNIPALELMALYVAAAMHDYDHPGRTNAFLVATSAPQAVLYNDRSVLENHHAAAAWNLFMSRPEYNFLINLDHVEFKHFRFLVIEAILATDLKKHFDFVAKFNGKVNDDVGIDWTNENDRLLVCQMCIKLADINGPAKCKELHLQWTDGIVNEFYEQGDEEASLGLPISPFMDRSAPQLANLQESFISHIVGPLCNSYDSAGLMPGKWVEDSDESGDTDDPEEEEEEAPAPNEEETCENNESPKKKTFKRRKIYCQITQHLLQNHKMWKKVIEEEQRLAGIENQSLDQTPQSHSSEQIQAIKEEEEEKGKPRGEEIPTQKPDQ

SMILES | inhibition [%]
Cc1c(OCc2cccnc2)ccc2c(=O)cc(N3CCOCC3)oc12 | 68
O=c1cc(N2CCOCC2)oc2c(OCc3cccnc3)cccc12 | 5
O=c1cc(N2CCOCC2)oc2cc(OCc3cccnc3)ccc12 | 19
O=c1cc(N2CCOCC2)oc2c(CCc3ccccc3)cccc12 | 28
Cc1c(OCCN2CCN(C)CC2)ccc2c(=O)cc(N3CCOCC3)oc12 | -10
O=c1cc(N2CCOCC2)oc2cc(Oc3ccccc3)ccc12 | 43
O=c1cc(N2CCOCC2)oc2cc(OCc3ccccc3)ccc12 | 49
O=c1cc(N2CCOCC2)oc2cc(C#Cc3ccccc3)ccc12 | 70
O=c1cc(N2CCOCC2)oc2c(C#Cc3ccccc3)cccc12 | 60
O=c1cc(N2CCOCC2)oc2c(OCc3ccccc3)cccc12 | -7

Continued, values first:

inhibition [%] | SMILES
44 | Cc1c(C#Cc2ccccc2)ccc2c(=O)cc(N3CCOCC3)oc12
83 | Cc1c(-c2ccccc2)ccc2c(=O)cc(N3CCOCC3)oc12
63 | COc1cc(-c2ccc(Cl)cc2)c2oc(N3CCOCC3)cc(=O)c2c1
50 | O=c1cc(N2CCOCC2)oc2cc(-c3ccccc3)ccc12
78 | Cc1c(Oc2ccccc2)ccc2c(=O)cc(N3CCOCC3)oc12
35 | O=c1cc(N2CCOCC2)oc2c(-c3ccccc3)cccc12
86 | Cc1c(OCc2ccccc2)ccc2c(=O)cc(N3CCOCC3)oc12

What follows are compounds tested against Phosphodiesterase 3 (Homo sapiens) (UniProt Q14432+Q13370) (assay: Inhibition of PDE3 at 6.25 uM).
Assay type: protein assay

inhibition [%] | SMILES
46 | Cc1c(OCc2cccnc2)ccc2c(=O)cc(N3CCOCC3)oc12
